This note sets out measurements from ChEMBL document CHEMBL1201862, “PubChem BioAssay data set” (2004).

Among the test systems are KM12; MDA-MB-231; CAKI-1; MDA-MB-435; SF-539; DU-145; NCI-H522; MCF7; NCI-H460; TK-10; SK-MEL-28; SW-620; HCT-15; RPMI-8226; UACC-62; HL-60; SN12C; COLO 205; HOP-62; SNB-75.
What all share (test): DTP human tumour cell line panel, 48 h

The structures appear in SMILES notation.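 Test compounds were applied to cells in 96-well plates for 48 hours at 5 doses. Here, GI50 denotes the concentration required for 50% inhibition of growth.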 The source made the active and inactive calls. Cut-off read from the data, not from the text of the source: active = GI50 up to about 1.1 µM and inactive = higher.

By GI50 is commonly meant the concentration that inhibits growth by half. For the compound `O=Cc1ccc(-c2ccc(S(=O)(=O)O)cc2)o1`, the GI50 with KM12, with MDA-MB-231, in the experiment on CAKI-1, with MDA-MB-435, with SF-539 and in the experiment with DU-145 was > 100 µM (inactive) in each case. For the same compound, the GI50 in the experiment with NCI-H522, in the experiment on MCF7, in the experiment on NCI-H460, with TK-10, in the experiment on SK-MEL-28 and in the experiment on SW-620 was > 100 µM (inactive) throughout. Besides, the GI50 is greater than 100 µM in the experiment with HCT-15; > 100 µM (inactive) with RPMI-8226; > 100 µM (inactive) with UACC-62; > 100 µM (inactive) with HL-60; > 100 µM (inactive) in the experiment with SN12C; > 100 µM (inactive) in the experiment on COLO 205.

As to `N=C(N)NC(=N)Nc1ccccc1.Sc1nc2ccccc2s1`, the GI50 with KM12, in the experiment with MDA-MB-231, in the experiment on CAKI-1, with MDA-MB-435, with HOP-62 and with SF-539 was > 100 µM (inactive) throughout. Also, the GI50 was > 100 µM (inactive) in the experiment on DU-145; 53.8 µM (inactive) in the experiment with NCI-H522; > 100 µM (inactive) with MCF7; > 100 µM (inactive) in the experiment with NCI-H460; > 100 µM (inactive) with SNB-75; > 100 µM (inactive) in the experiment on TK-10. Further, the GI50 was > 100 µM (inactive) with SK-MEL-28; > 100 µM (inactive) in the experiment on SW-620; greater than 100 µM in the experiment with HCT-15; > 100 µM (inactive) in the experiment on UACC-62; > 100 µM (inactive) with HL-60; > 100 µM (inactive) with SN12C. Besides, the GI50 in the experiment with COLO 205 is > 100 µM (inactive).

With `CNC(=O)Nn1c(SC)nc2ccccc21`, the GI50 with KM12, with MDA-MB-231, in the experiment on CAKI-1, with MDA-MB-435, in the experiment with HOP-62 and in the experiment on DU-145 was > 100 µM (inactive) each time. The GI50 in the experiment on NCI-H522, in the experiment on MCF7, in the experiment with NCI-H460, with TK-10, in the experiment on SK-MEL-28 and in the experiment with SW-620 was > 100 µM (inactive) each time. The GI50 in the experiment on HCT-15 is greater than 100 µM; with RPMI-8226, > 100 µM (inactive); in the experiment with UACC-62 it was > 100 µM (inactive); with HL-60, > 100 µM (inactive); in the experiment on SN12C it was > 100 µM (inactive); with COLO 205, > 100 µM (inactive).

Consider `COC(=O)/C=C\[C@H]1[C@H](C)N1S(=O)(=O)c1ccc(C)cc1` (some centres undefined), for which the GI50 with KM12, with MDA-MB-231, in the experiment with CAKI-1, in the experiment on MDA-MB-435, in the experiment with HOP-62 and in the experiment on SF-539 was > 100 µM (inactive) throughout. The GI50 with DU-145 was > 100 µM (inactive); in the experiment on NCI-H522, 20.4 µM (inactive); in the experiment with MCF7 it was > 100 µM (inactive); in the experiment on NCI-H460, > 100 µM (inactive); with TK-10, > 100 µM (inactive); in the experiment on SK-MEL-28, > 100 µM (inactive). Moreover, the GI50 with SW-620 is > 100 µM (inactive); with HCT-15, 70.3 µM; in the experiment on RPMI-8226, > 100 µM (inactive); with UACC-62, > 100 µM (inactive); in the experiment on HL-60, > 100 µM (inactive); in the experiment with SN12C, > 100 µM (inactive). In the experiment on COLO 205, the GI50 was > 100 µM (inactive).

For `Cc1ccc(-c2cc(-c3c(C)nn(C)c(=O)c3N)n[nH]2)cc1`, the GI50 in the experiment with KM12, in the experiment with MDA-MB-231, in the experiment with CAKI-1, with MDA-MB-435, in the experiment with SF-539 and in the experiment on DU-145 was > 100 µM (inactive) throughout. Besides, the GI50 with MCF7 was > 100 µM (inactive); in the experiment with NCI-H460 it was > 100 µM (inactive); in the experiment with TK-10, > 100 µM (inactive); in the experiment with SK-MEL-28, > 100 µM (inactive); with SW-620, > 100 µM (inactive); in the experiment on HCT-15 it was greater than 100 µM. In addition, the GI50 was 99.1 µM (inactive) in the experiment with RPMI-8226; > 100 µM (inactive) in the experiment on UACC-62; > 100 µM (inactive) in the experiment on HL-60; > 100 µM (inactive) in the experiment with SN12C; > 100 µM (inactive) in the experiment with COLO 205.

As to `COc1ccc(OC)c2c(/C=C/c3ccc(N(C)C)cc3)ccnc12`, the GI50 in the experiment with KM12 was > 10 µM (inactive); with MDA-MB-231 it was 8.34 µM (inactive); with CAKI-1, > 10 µM (inactive); in the experiment on MDA-MB-435, 5.21 µM (inactive); with HOP-62 it was > 10 µM (inactive); with SF-539, 2.77 µM (inactive). Also, the GI50 in the experiment on DU-145 is > 10 µM (inactive); with NCI-H522, 8.02 µM (inactive); with MCF7, 3.52 µM (inactive); in the experiment on NCI-H460, 9.68 µM (inactive); in the experiment on SNB-75 it was 6.53 µM (inactive); in the experiment with TK-10, 5.58 µM (inactive). For the same compound, the GI50 is 3.3 µM (inactive) with SK-MEL-28; > 10 µM (inactive) in the experiment on SW-620; greater than 10 µM in the experiment with HCT-15; 3.01 µM (inactive) in the experiment on UACC-62; 1.91 µM (inactive) in the experiment on HL-60; 8.05 µM (inactive) with SN12C. Besides, the GI50 in the experiment on COLO 205 was > 10 µM (inactive).

Turning to `COCC1OC(S(=O)(=O)c2ccccc2)C(O)C(OC)C1OC` (centres undefined), the GI50 with KM12, in the experiment on MDA-MB-231, with CAKI-1, in the experiment with MDA-MB-435, with HOP-62 and in the experiment with SF-539 was > 100 µM (inactive) in each case. Also, the GI50 with DU-145, in the experiment on NCI-H522, with MCF7, with NCI-H460, in the experiment on TK-10 and with SK-MEL-28 was > 100 µM (inactive) in each case. Besides, the GI50 in the experiment with SW-620 was > 100 µM (inactive); in the experiment on HCT-15 it was greater than 100 µM; with UACC-62, > 100 µM (inactive); with HL-60 it was > 100 µM (inactive); with SN12C it was > 100 µM (inactive); in the experiment with COLO 205, > 100 µM (inactive).

As to `O=C1C(c2c(O)[nH]c3ccccc23)=Nc2ccc(Br)cc21`, the GI50 in the experiment on KM12 is 17.1 µM (inactive); in the experiment on MDA-MB-231, 23.3 µM (inactive); in the experiment on CAKI-1, 56.2 µM (inactive); with MDA-MB-435, 61.8 µM (inactive); in the experiment on HOP-62 it was 21.3 µM (inactive); in the experiment with DU-145 it was 8.11 µM (inactive). For the same compound, the GI50 in the experiment with NCI-H522 was 28.5 µM (inactive); with MCF7, 1.24 µM (inactive); in the experiment with NCI-H460, 70 µM (inactive); in the experiment with SNB-75 it was 14.6 µM (inactive); in the experiment on TK-10 it was 23 µM (inactive); in the experiment on SK-MEL-28, > 100 µM (inactive). The GI50 in the experiment on SW-620 was 39.6 µM (inactive); in the experiment on HCT-15 it was 76.2 µM; with RPMI-8226, 75.7 µM (inactive); in the experiment with UACC-62, 17.6 µM (inactive); in the experiment on HL-60, 23.7 µM (inactive); in the experiment on SN12C, 77.1 µM (inactive). In addition, the GI50 in the experiment with COLO 205 is > 100 µM (inactive).

On to `O=C1CSC(c2cccc(Oc3ccccc3)c2)N1c1ccc(Cl)cc1` (centres undefined), for which the GI50 was 21.3 µM (inactive) with KM12; 27.4 µM (inactive) with MDA-MB-231; 17.9 µM (inactive) in the experiment on CAKI-1; 23.2 µM (inactive) in the experiment with MDA-MB-435; 57 µM (inactive) in the experiment with HOP-62; 32.1 µM (inactive) with SF-539. The GI50 was 52.2 µM (inactive) in the experiment with DU-145; 16.3 µM (inactive) in the experiment with NCI-H522; 15.3 µM (inactive) in the experiment with MCF7; 17.1 µM (inactive) in the experiment on NCI-H460; 28 µM (inactive) with SNB-75; 22.4 µM (inactive) in the experiment with TK-10. The GI50 with SK-MEL-28 is 41.2 µM (inactive); in the experiment with SW-620 it was 33.6 µM (inactive); in the experiment on HCT-15, 26.4 µM; in the experiment with UACC-62, 10.8 µM (inactive); with HL-60, 24.9 µM (inactive); with SN12C, 41.3 µM (inactive). Besides, the GI50 in the experiment on COLO 205 was 18.5 µM (inactive).

Turning to `CNCCCn1c2ccccc2c2c3c(c(-c4ccsc4)cc21)C(=O)NC3=O`, the GI50 with KM12 is 0.0174 µM (active); in the experiment with MDA-MB-231 it was 1.57 µM (inactive); in the experiment on CAKI-1 it was 0.519 µM (active); in the experiment with MDA-MB-435, 1.12 µM (active); in the experiment on HOP-62, 1.02 µM (active); in the experiment on SF-539, 0.0281 µM (active). Further, the GI50 with DU-145 is 0.179 µM (active); with NCI-H522 it was 1.66 µM (inactive); in the experiment with MCF7, 0.0984 µM (active); in the experiment on NCI-H460 it was 1.35 µM (inactive); in the experiment with SNB-75, 1.91 µM (inactive); with TK-10 it was 1.35 µM (inactive). Further, the GI50 in the experiment with SK-MEL-28 was 1.78 µM (inactive); with SW-620 it was 1.36 µM (inactive); in the experiment with HCT-15, 1.51 µM; in the experiment with UACC-62 it was 1.49 µM (inactive); in the experiment with HL-60, 2.22 µM (inactive); with SN12C it was 1.29 µM (inactive). In the experiment with COLO 205, the GI50 was 1.39 µM (inactive).

For the compound `O=C(O)CCSC1=NCCN1`, the GI50 in the experiment with KM12, with MDA-MB-231, in the experiment with CAKI-1, in the experiment with MDA-MB-435, in the experiment with HOP-62 and in the experiment with DU-145 was > 100 µM (inactive) in each case. In addition, the GI50 in the experiment with NCI-H522, with MCF7, with NCI-H460, in the experiment on SNB-75, in the experiment on TK-10 and with SK-MEL-28 was > 100 µM (inactive) each time. In addition, the GI50 was > 100 µM (inactive) with SW-620; greater than 100 µM with HCT-15; > 100 µM (inactive) with RPMI-8226; > 100 µM (inactive) in the experiment with UACC-62; > 100 µM (inactive) in the experiment on HL-60; > 100 µM (inactive) in the experiment with SN12C. For the same compound, in the experiment with COLO 205, the GI50 is > 100 µM (inactive).
